From US12173004B2, “Pharmaceutical compositions comprising heterocycle fused gamma carboline prodrugs” (INTRA-CELLULAR THERAPIES, INC., priority 2017, dated 2024)

Columns and labels:
[1] = biological target: ERK2 (Mus musculus (Mouse), UniProt P63085); assay: CNS phosphoprotein profile, nucleus accumbens: ERK2; assay type: in vivo, mice; settings: 3 mg/kg
Method: (§1) A comprehensive molecular phosphorylation study is also carried out to examine the central nervous system (CNS) profile of the compounds of Example 1 and Example 2. The extent of protein phosphorylation for selected key central nervous system proteins is measured in mice nucleus accumbens.
(§2) Mice were killed 30 minutes to 2 hours post-injection by focused microwave cranial irradiation, which preserves brain phosphoprotein as it exists at the time of death. Nucleus accumbens was then dissected from each mouse brain, sliced and frozen in liquid nitrogen. Samples were further prepared for phosphoprotein analysis via SDS-PAGE electrophoresis followed by phosphoprotein-specific immunoblotting, as described in Zhu H, et al., Brain Res. 2010 Jun. 25; 1342:11-23. Phosphorylation at each site was quantified, normalized to total levels of the protein (non-phosphorylated), and expressed as percent of the level of phosphorylation in vehicle-treated control mice.

[2] = biological target: NR2B (Mus musculus (Mouse), UniProt Q01097); assay: CNS phosphoprotein profile, nucleus accumbens: NR2B; assay type: in vivo, mice; settings: 3 mg/kg, at 30-60 minutes
Method: as §1, §2

[3] = biological target: D2 (Homo sapiens (Human), UniProt P14416); assay: biochemical; settings: read-out: maximum inhibition D2
[4] = biological target: TH (tyrosine hydroxylase) (Mus musculus (Mouse), UniProt P24529); assay: CNS phosphoprotein profile, nucleus accumbens: TH; assay type: in vivo, mice; settings: for increase in TH phosphorylation: Ser40, haloperidol at 2 mg/kg
Method: as §1, §2

[5] = biological target: 5-HT2 receptor (Mus musculus (Mouse), UniProt P35363); assay: DOI-Induced Head Twitch Model in Mice; assay type: in vivo; settings: po, p.o. 0.5 hr before DOI, read-out: EC50 (mg/kg, p.o.) for reducing DOI-induced head twitches
[6] = biological target: D1 (Homo sapiens (Human), UniProt P21728); settings: read-out: Ki (nM) D1
[7] = biological target: GluR1 (Mus musculus (Mouse), UniProt P23818); assay: CNS phosphoprotein profile, nucleus accumbens: GluR1; assay type: in vivo, mice; settings: 3 mg/kg
Method: as §1, §2

[8] = tested on: rats; assay: Pulmonary function in rats; assay type: in vivo; settings: for RR (breaths/min): 60 minutes
[9] = tested on: Mice; assay: Mouse Marble-Burying Study (OCD Model); assay type: in vivo
Source text: The marble burying test is used to measure repetitive and anxiety-related behavior in rodents. It is based on the observation that rats and mice will bury either harmful or harmless objects in their bedding, and it has been used as an animal model to measure the effect of pharmacological interventions in treatment of repetitive behavior disorders, such as OCD.
MPEP is a selective mGluR5 glutamate receptor antagonist. […] Mice in groups (1) are orally administered the vehicle, and mice in group (4) are given an intraperitoneal injection of MPEP just prior to the start of the test.
The test is conducted in rectangular cages with 4-5 cm of wood chip bedding in a room with the window shades lowered and the door closed to minimize distractions. Fifteen clean marbles are evenly spaced on top of the bedding in three rows of five marbles. One mouse is placed in each cage. The mouse and cage is left undisturbed for 30 minutes. At the end of the test, the mouse is removed and the number of marbles buried to at least ⅔ of their depth is counted.

[10] = in vivo; settings: mouse
[11] = in vivo; settings: rat, iv, 1 mg/kg
[12] = tested on: C57 mice; assay: Formalin Paw Test (Inflammatory Pain Model); assay type: in vivo
[13] = tested on: rats; assay: Gastrointestinal motility, activated charcoal transit in rats; settings: morphine 5 mg/kg SC
[14] = Cmpd, PO 3.0 mg/kg, 30 min prior to formalin
[15] = Cmpd, SC 0.3 mg/kg, 30 min prior to formalin
[16] = Cmpd, SC 1.0 mg/kg, 30 min prior to formalin
[17] = Cmpd, SC 3.0 mg/kg, 30 min prior to formalin
[18] = morphine 5 mg/kg SC, 30 min prior to formalin

NR2B, sequence (Q01097 27-1482 limits assumed): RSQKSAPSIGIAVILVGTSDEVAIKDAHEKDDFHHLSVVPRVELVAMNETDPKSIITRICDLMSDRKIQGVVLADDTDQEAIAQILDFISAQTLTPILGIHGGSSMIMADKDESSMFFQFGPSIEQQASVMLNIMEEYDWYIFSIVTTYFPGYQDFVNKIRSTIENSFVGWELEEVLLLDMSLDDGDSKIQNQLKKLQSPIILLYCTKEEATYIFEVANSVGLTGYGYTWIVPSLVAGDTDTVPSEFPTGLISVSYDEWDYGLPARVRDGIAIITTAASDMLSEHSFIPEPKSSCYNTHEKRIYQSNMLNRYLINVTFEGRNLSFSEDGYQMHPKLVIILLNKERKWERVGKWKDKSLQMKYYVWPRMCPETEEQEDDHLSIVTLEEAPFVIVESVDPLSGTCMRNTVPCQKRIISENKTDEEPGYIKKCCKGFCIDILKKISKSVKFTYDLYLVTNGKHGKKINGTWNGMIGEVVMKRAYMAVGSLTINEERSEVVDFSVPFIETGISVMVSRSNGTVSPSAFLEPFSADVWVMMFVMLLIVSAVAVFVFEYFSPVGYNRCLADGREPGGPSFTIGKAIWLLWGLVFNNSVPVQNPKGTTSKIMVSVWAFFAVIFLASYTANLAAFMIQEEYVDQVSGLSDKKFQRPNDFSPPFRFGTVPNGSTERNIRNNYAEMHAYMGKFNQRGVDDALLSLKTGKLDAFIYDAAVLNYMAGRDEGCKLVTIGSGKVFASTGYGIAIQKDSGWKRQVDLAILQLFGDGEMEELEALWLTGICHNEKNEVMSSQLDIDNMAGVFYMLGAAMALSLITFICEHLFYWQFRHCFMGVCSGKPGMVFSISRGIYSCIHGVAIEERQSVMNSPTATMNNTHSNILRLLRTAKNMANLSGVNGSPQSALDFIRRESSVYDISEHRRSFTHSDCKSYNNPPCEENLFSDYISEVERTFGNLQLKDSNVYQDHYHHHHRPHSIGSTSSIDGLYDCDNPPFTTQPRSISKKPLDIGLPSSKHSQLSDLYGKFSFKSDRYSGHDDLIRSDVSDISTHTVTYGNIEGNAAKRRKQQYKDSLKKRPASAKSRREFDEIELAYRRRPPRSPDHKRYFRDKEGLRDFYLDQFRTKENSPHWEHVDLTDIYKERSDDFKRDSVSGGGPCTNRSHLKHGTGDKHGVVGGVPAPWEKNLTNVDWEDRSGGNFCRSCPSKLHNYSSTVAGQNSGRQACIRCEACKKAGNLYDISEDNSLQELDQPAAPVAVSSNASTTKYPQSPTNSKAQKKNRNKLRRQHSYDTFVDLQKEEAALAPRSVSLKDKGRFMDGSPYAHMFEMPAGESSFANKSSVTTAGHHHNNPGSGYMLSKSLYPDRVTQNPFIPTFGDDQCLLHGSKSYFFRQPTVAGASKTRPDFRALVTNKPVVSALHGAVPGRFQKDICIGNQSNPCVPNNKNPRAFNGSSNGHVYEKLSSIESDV
GluR1, sequence (P23818 19-907 limits assumed): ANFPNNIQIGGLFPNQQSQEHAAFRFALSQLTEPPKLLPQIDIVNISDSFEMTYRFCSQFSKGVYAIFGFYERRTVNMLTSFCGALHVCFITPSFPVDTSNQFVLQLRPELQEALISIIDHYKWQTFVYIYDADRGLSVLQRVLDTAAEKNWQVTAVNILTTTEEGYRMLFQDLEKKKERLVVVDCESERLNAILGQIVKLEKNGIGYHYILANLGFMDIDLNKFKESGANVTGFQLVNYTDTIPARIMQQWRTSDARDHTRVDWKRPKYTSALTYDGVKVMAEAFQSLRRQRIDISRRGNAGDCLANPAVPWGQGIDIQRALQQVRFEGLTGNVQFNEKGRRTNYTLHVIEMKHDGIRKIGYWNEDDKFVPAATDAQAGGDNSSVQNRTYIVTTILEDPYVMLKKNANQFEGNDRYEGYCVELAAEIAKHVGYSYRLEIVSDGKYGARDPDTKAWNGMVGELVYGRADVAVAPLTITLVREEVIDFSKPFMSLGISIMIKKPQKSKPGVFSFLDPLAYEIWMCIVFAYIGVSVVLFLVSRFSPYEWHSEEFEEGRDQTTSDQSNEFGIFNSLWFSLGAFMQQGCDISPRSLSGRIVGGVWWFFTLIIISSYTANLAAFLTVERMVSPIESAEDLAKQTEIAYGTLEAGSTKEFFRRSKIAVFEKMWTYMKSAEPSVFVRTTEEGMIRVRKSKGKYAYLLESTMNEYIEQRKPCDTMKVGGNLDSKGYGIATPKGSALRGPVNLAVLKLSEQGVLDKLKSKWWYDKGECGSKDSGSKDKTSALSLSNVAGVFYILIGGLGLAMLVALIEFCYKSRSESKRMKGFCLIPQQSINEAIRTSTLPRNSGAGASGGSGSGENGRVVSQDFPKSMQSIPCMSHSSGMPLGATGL
D2, sequence (P14416 with tags, fused parts or gaps limits assumed): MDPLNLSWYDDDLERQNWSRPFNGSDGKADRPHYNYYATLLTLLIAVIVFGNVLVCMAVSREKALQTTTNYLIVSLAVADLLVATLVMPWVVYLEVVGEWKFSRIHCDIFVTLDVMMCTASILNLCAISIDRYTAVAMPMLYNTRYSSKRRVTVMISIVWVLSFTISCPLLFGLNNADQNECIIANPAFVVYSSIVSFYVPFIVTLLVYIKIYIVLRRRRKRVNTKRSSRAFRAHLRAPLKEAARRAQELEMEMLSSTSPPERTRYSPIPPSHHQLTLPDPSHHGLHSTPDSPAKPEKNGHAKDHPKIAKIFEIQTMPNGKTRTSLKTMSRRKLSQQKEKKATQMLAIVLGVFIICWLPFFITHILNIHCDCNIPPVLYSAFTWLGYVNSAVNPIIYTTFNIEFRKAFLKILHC

SMILES: O=C1CN2c3c(cccc3[C@@H]3CN(CCCC(=O)c4ccc(F)cc4)CC[C@@H]32)N1 [Example 1]
- ERK2 phosphorylation at Thr183 and Tyr185 [1]: slight decrease
- effect on NR2B phosphorylation at Tyr1472 [2]: neither the compound of Example 1 nor of Example 2 has a significant effect
- inhibition at […] [3]: 47%
- effect on tyrosine hydroxylase phosphorylation at Ser40 ([4]; 3 mg/kg, at 30 minutes or 60 minutes): neither the compound of Example 1 nor of Example 2 has a significant effect
- ED50 [5]: 0.23 mg/kg
- Ki [6]: 22 nM
- GluR1 phosphorylation at Ser845 [7]: slight increase

SMILES: O=C1CN2c3c(cccc3[C@@H]3CN(CCCOc4ccc(F)cc4)CC[C@@H]32)N1 [Example 2, (6bR,10aS)-8-(3-(4-fluorophenoxy)propyl)-6b,7,8,9,10,10a-hexahydro-1H-pyrido[3′,4′:4,5]pyrrolo[1,2,3-de]quinoxalin-2(3H)-one]
- RR (breaths/min) ([8]; 0.3 mg/kg s.c.): 181 breaths/min
- RR (breaths/min) ([8]; 1.0 mg/kg s.c.): 203 breaths/min
- RR (breaths/min) ([8]; 3.0 mg/kg s.c.): 190 breaths/min
- respiratory rate, tidal volume and minute volume compared to vehicle control ([8]; 0.3, 1.0 and 3.0 mg/kg s.c., 0, 15, 60, 120, and 240 minutes): no significant differences
- Marbles Buried ([9]; 0.3 mg/kg orally 30 minutes prior, of fifteen marbles, 30 min): 9.3
- Tmax ([10]; brain, po, 10 mg/kg): 15 min
- Tmax ([10]; brain, sc, 0.1 mg/kg): 60 min
- Tmax ([10]; plasma, po, 10 mg/kg): 15 min
- Tmax ([10]; plasma, sc, 0.1 mg/kg): 30 min
- ED50 [5]: 0.44 mg/kg
- bioavailability [11]: 100%
- Mean Behavior Rating (0-4), 0-10 Min [12, 14]: 0.9
- Mean Behavior Rating (0-4), 0-6 min [12, 14]: 1.5
- Mean Behavior Rating (0-4), 11-40 min [12, 14]: 0.8
- Mean Behavior Rating (0-4), 16-40 min [12, 14]: 0.9
- Mean Behavior Rating (0-4), 0-6 min [12, 15]: 2.3
- Mean Behavior Rating (0-4), 11-40 min [12, 15]: 1.0
- Mean Behavior Rating (0-4), 16-40 min [12, 15]: 1.2
- Mean Behavior Rating (0-4), 0-10 Min [12, 16]: 1.3
- Mean Behavior Rating (0-4), 0-6 min [12, 16]: 1.9
- Mean Behavior Rating (0-4), 11-40 min [12, 16]: 1.0
- Mean Behavior Rating (0-4), 16-40 min [12, 16]: 1.1
- Mean Behavior Rating (0-4), 0-10 Min [12, 17]: 0.8
- Mean Behavior Rating (0-4), 0-6 min [12, 17]: 1.3
- Mean Behavior Rating (0-4), 11-40 min [12, 17]: 0.1
- Mean Behavior Rating (0-4), 16-40 min [12, 17]: 0.1
- Mean Behavior Rating (0-4), 0-10 Min ([12]; mouse, in vivo): 1.5

SMILES: Cc1cccc(C#Cc2ccccc2)n1 [MPEP, 2-methyl-6-(phenylethynyl)pyridine, reference compound]
- Marbles Buried ([9]; 20 mg/kg intraperitoneal just prior to test, positive control): 0.2

SMILES: CN1CC[C@]23c4c5ccc(O)c4O[C@H]2[C@@H](O)C=C[C@H]3[C@H]1C5 [Morphine, morphine, reference compound]
- reduction in gastric motility [13]: ~50%
- Mean Behavior Rating (0-4), 0-10 Min [12, 18]: 1.1
- Mean Behavior Rating (0-4), 0-6 min [12, 18]: 1.7
- Mean Behavior Rating (0-4), 11-40 min [12, 18]: 0.2
- Mean Behavior Rating (0-4), 16-40 min [12, 18]: 0.2

SMILES: O=C(CCCN1CCC(O)(c2ccc(Cl)cc2)CC1)c1ccc(F)cc1 [haloperidol]
- increase in TH phosphorylation [4]: greater than 400%

SMILES: Cc1nc2n(c(=O)c1CCN1CCC(c3noc4cc(F)ccc34)CC1)CCCC2 [risperidone]
- increase in TH phosphorylation [4]: greater than 500%
